Key:
Assay in all cases: Bliss interaction score (quartile over a dose matrix) (fitness difference); higher = more antagonism (negative = synergy)
B. subtilis 168 = test system: B. subtilis 168
Method in brief: (§1)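 The Bliss score subtracts expected fitness, the product of the single-drug fitness values, from observed fitness. Fitness is plate-normalised OD595 at entry into stationary phase, relative to the robust no-drug mean and capped at 1, with single-drug fitness inferred from combinations. Summaries are quartiles over technical, biological and donor/recipient replicates.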

S. aureus Newman = test system: S. aureus Newman
Method in brief: as §1

S. aureus DSM 20231 = test system: S. aureus DSM 20231
Method in brief: as §1

S. pneumoniae D39V = test system: S. pneumoniae D39V
Method in brief: as §1
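Also: first quartile when negative (synergy) and third quartile when positive (antagonism).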

| SMILES | Bliss interaction score (B. subtilis 168) | Bliss interaction score (S. aureus Newman) | Bliss interaction score (S. aureus DSM 20231) | Bliss interaction score (S. pneumoniae D39V) | Bliss interaction score (B. subtilis 168; main component drawn) | Bliss interaction score (S. aureus Newman; main component drawn) | Bliss interaction score (S. aureus DSM 20231; main component drawn) | Bliss interaction score (S. pneumoniae D39V; main component drawn) |
| --- | --- | --- | --- | --- | --- | --- | --- | --- |
| O=C1CN(/N=C/c2ccc([N+](=O)[O-])o2)C(=O)N1 [Nitrofurantoin] + C/C(=C\C(=O)OCCCCCCCCC(=O)O)C[C@@H]1OC[C@H](C[C@@H]2O[C@H]2[C@@H](C)[C@H](C)O)[C@@H](O)[C@H]1O [Pseudomonic acid] | 0.127 | -0.0266 | -0.0197 | 0.0739 | – | – | – | – |
| O=C1CN(/N=C/c2ccc([N+](=O)[O-])o2)C(=O)N1 [Nitrofurantoin] + CC1(C)S[C@@H]2[C@H](NC(=O)Cc3ccccc3)C(=O)N2[C@H]1C(=O)O [PenicillinG] | -0.0696 | 0.0397 | -0.0568 | 0.13 | – | – | – | – |
| O=C1CN(/N=C/c2ccc([N+](=O)[O-])o2)C(=O)N1 [Nitrofurantoin] + CCCCCCCCCC(=O)N[C@@H]1[C@H]([C@@H]([C@H](O[C@H]1OC2=C3C=C4C=C2OC5=C(C=C(C=C5)[C@H]([C@H]6C(=O)N[C@@H](C7=C(C(=CC(=C7)O)OC8[C@H]([C@H]([C@@H]([C@H](O8)CO)O)O)O)C9=C(C=CC(=C9)[C@H](C(=O)N6)NC(=O)[C@@H]4NC(=O)[C@@H]1C2=CC(=CC(=C2)OC2=C(C=CC(=C2)[C@H](C(=O)N[C@H](CC2=CC(=C(O3)C=C2)Cl)C(=O)N1)N)O)O)O)C(=O)O)O[C@H]1[C@@H]([C@H]([C@@H]([C@H](O1)CO)O)O)NC(=O)C)Cl)CO)O)O [Teicoplanin] | – | – | – | – | -0.157 | -0.0914 | 0.0402 | -0.06 |
| O=C1CN(/N=C/c2ccc([N+](=O)[O-])o2)C(=O)N1 [Nitrofurantoin] + CC[C@H]1OC(=O)[C@H](C)C(=O)[C@H](C)[C@@H](O[C@@H]2O[C@H](C)C[C@H](N(C)C)[C@H]2O)[C@](C)(OC)C[C@@H](C)C(=O)[C@H](C)[C@H]2N(CCCCn3cnc(-c4cccnc4)c3)C(=O)O[C@]12C [Telithromycin] | -0.128 | -0.0641 | -0.0398 | -0.293 | – | – | – | – |
| O=C1CN(/N=C/c2ccc([N+](=O)[O-])o2)C(=O)N1 [Nitrofurantoin] + CN[C@H](CC(C)C)C(=O)N[C@H]1C(=O)N[C@@H](CC(N)=O)C(=O)N[C@H]2C(=O)N[C@H]3C(=O)N[C@H](C(=O)N[C@H](C(=O)O)c4cc(O)cc(O)c4-c4cc3ccc4O)[C@H](O[C@H]3C[C@](C)(N)[C@@H](O)[C@H](C)O3)c3ccc(c(Cl)c3)Oc3cc2cc(c3O[C@@H]2O[C@H](CO)[C@@H](O)[C@H](O)[C@H]2O[C@H]2C[C@](C)(NCc3ccc(-c4ccc(Cl)cc4)cc3)[C@@H](O)[C@H](C)O2)Oc2ccc(cc2Cl)[C@H]1O [Oritavancin] | 0.0189 | -0.118 | -0.0379 | -0.0352 | – | – | – | – |
| O=C1CN(/N=C/c2ccc([N+](=O)[O-])o2)C(=O)N1 [Nitrofurantoin] + CO[C@@H]1[C@@H](OC(N)=O)[C@@H](O)[C@H](Oc2ccc3c(O)c(NC(=O)c4ccc(O)c(CC=C(C)C)c4)c(=O)oc3c2C)OC1(C)C [Novobiocin] | 0.0731 | 0.0827 | 0.0482 | 0.0513 | – | – | – | – |
| O=C1CN(/N=C/c2ccc([N+](=O)[O-])o2)C(=O)N1 [Nitrofurantoin] + COc1cc(Cc2cnc(N)nc2N)cc(OC)c1OC [Trimethoprim] | -0.181 | 0.0663 | -0.0418 | -0.553 | – | – | – | – |
| O=C1CN(/N=C/c2ccc([N+](=O)[O-])o2)C(=O)N1 [Nitrofurantoin] + Oc1cc(Cl)ccc1Oc1ccc(Cl)cc1Cl [Triclosan] | -0.039 | 0.0328 | -0.014 | 0.0809 | – | – | – | – |
| C/C(=C\C(=O)OCCCCCCCCC(=O)O)C[C@@H]1OC[C@H](C[C@@H]2O[C@H]2[C@@H](C)[C@H](C)O)[C@@H](O)[C@H]1O [Pseudomonic acid] + CC[C@H]1OC(=O)[C@H](C)C(=O)[C@H](C)[C@@H](O[C@@H]2O[C@H](C)C[C@H](N(C)C)[C@H]2O)[C@](C)(OC)C[C@@H](C)C(=O)[C@H](C)[C@H]2N(CCCCn3cnc(-c4cccnc4)c3)C(=O)O[C@]12C [Telithromycin] | 0.0359 | -0.028 | 0.0119 | -0.0569 | – | – | – | – |
| C/C(=C\C(=O)OCCCCCCCCC(=O)O)C[C@@H]1OC[C@H](C[C@@H]2O[C@H]2[C@@H](C)[C@H](C)O)[C@@H](O)[C@H]1O [Pseudomonic acid] + COc1cc(Cc2cnc(N)nc2N)cc(OC)c1OC [Trimethoprim] | 0.0595 | 0.0264 | 0.0182 | -0.143 | – | – | – | – |
| C/C(=C\C(=O)OCCCCCCCCC(=O)O)C[C@@H]1OC[C@H](C[C@@H]2O[C@H]2[C@@H](C)[C@H](C)O)[C@@H](O)[C@H]1O [Pseudomonic acid] + Oc1cc(Cl)ccc1Oc1ccc(Cl)cc1Cl [Triclosan] | -0.0255 | -0.0174 | -0.0069 | 0.0696 | – | – | – | – |
| CCCCCCCCCC(=O)N[C@H]1[C@H](Oc2c3cc4cc2Oc2ccc(cc2Cl)[C@@H](O[C@@H]2O[C@H](CO)[C@@H](O)[C@H](O)[C@H]2NC(C)=O)[C@@H]2NC(=O)[C@H](NC(=O)[C@@H]4NC(=O)[C@H]4NC(=O)[C@@H](Cc5ccc(c(Cl)c5)O3)NC(=O)[C@H](N)c3ccc(O)c(c3)Oc3cc(O)cc4c3)c3ccc(O)c(c3)-c3c(O[C@H]4O[C@H](CO)[C@@H](O)[C@H](O)[C@@H]4O)cc(O)cc3[C@@H](C(=O)O)NC2=O)O[C@H](CO)[C@@H](O)[C@@H]1O [Teicoplanin] + CC[C@H]1OC(=O)[C@H](C)C(=O)[C@H](C)[C@@H](O[C@@H]2O[C@H](C)C[C@H](N(C)C)[C@H]2O)[C@](C)(OC)C[C@@H](C)C(=O)[C@H](C)[C@H]2N(CCCCn3cnc(-c4cccnc4)c3)C(=O)O[C@]12C [Telithromycin] | – | – | – | – | 0.0347 | 0.0616 | 0.0617 | 0.0575 |
| CCCCCCCCCC(=O)N[C@H]1[C@H](Oc2c3cc4cc2Oc2ccc(cc2Cl)[C@@H](O[C@@H]2O[C@H](CO)[C@@H](O)[C@H](O)[C@H]2NC(C)=O)[C@@H]2NC(=O)[C@H](NC(=O)[C@@H]4NC(=O)[C@H]4NC(=O)[C@@H](Cc5ccc(c(Cl)c5)O3)NC(=O)[C@H](N)c3ccc(O)c(c3)Oc3cc(O)cc4c3)c3ccc(O)c(c3)-c3c(O[C@H]4O[C@H](CO)[C@@H](O)[C@H](O)[C@@H]4O)cc(O)cc3[C@@H](C(=O)O)NC2=O)O[C@H](CO)[C@@H](O)[C@@H]1O [Teicoplanin] + Oc1cc(Cl)ccc1Oc1ccc(Cl)cc1Cl [Triclosan] | – | – | – | – | 0.0943 | -0.0356 | 0.0695 | -0.106 |
